From patent publication US4001223A, “Adamantane-piperazine derivatives” (Idemitsu Kosan Co., Ltd., priority 1975, dated 1977)
Entries after “also recorded” stand apart in the source; their conditions may differ.

Experiments:
Hypotensive action = assay type: in vivo; conditions: for dose showing hypotensive action: in vivo
[1] = system: Vessels excised from guinea-pigs; experiment: Inhibition of adrenalin-induced contraction of isolated smooth muscle (vessels excised from guinea-pigs); conditions: contracting substance Adrenalin 2.86×10^-6 g/ml; effective concentration 1×10^-5 g/ml
[2] = Stability in aqueous solution of tartaric acid; assay type: physicochemical
Method: After heating a 0.25 weight percent aqueous solution of the new compound N-(1-adamantyl methyl)-N'-cinnamyl piperazine prepared by using 2 times mol of tartaric acid based on 1 mol of this compound, the solution was allowed to cool to a room temperature (about 20° C). Then, the pH value was adjusted to 8-9 with 1/10 N aqueous solution of sodium hydroxide.

[3] = system: Small intestine excised from guinea-pigs; experiment: Inhibition of histamine-induced contraction of isolated smooth muscle (small intestine excised from guinea-pigs); conditions: contracting substance Histamine 1.00×10^-7 g/ml; effective concentration 1×10^-4 g/ml
[4] = system: Small intestine excised from guinea-pigs; experiment: Inhibition of acetylcholine-induced contraction of isolated smooth muscle (small intestine excised from guinea-pigs); conditions: contracting substance Acethylcholine 5.43×10^-4 g/ml; effective concentration 8.75×10^-6 g/ml
in vivo = conditions: for LD50: mouse, in vivo
[5] = system: Small intestine excised from guinea-pigs; experiment: Inhibition of BaCl2-induced contraction of isolated smooth muscle (small intestine excised from guinea-pigs); conditions: contracting substance BaCl2 2.00×10^-3 g/ml; effective concentration 1×10^-4 g/ml
isolated smooth muscle = experiment: Effect on contraction of isolated smooth muscle, overall; design: species or system guinea-pigs
[6] = Effect on cerebral blood flow in cats; assay type: in vivo; conditions: cats weighing about 3 kg
Description: (§1) The action on cerebral blood flow and muscular blood flow was examined with cats weighing about 3 kg.

[7] = Effect on muscular blood flow in cats; assay type: in vivo; conditions: cats weighing about 3 kg
Description: as §1

[8] = Solubility in aqueous solution of tartaric acid (aptitude test as an injection); assay type: physicochemical; conditions: 0.25 weight percent
Method: For the purpose of examining the solubility of the new compound N-(1-adamantyl methyl)-N'-cinnamyl piperazine in an aqueous solution of tartaric acid, the aqueous solutions in which 2, 4, 6 and 8 times molar of tartaric acid based on 1 mol of the new compound were contained were prepared and the compound was added so that its concentration should be 0.25 weight percent to each aqueous solution. Each aqueous solution was heated to 80° C and allowed to cool to a room temperature (about 20° C), then the solubility was evaluated. […] In addition, the pH value of 0.25 weight percent aqueous solution of the compound prepared by using 2 times mol of tartaric acid based on 1 molar of the compound was 3.10 and when an alkali was added to the aqueous solution, crystals began to separate at pH 3.80.

[9] = 0.25 weight percent, 2 times mol tartaric acid, heated, cooled, pH adjusted to 8-9, room temperature for 7 days

With C(=C\c1ccccc1)/CN1CCN(C(c2ccccc2)c2ccccc2)CC1 [Cinnarizine, reference compound] the “dose showing hypotensive action” value (Hypotensive action) was 0.5 mg/kg.

For C(=C\c1ccccc1)/CN1CCN(CC23CC4CC(CC(C4)C2)C3)CC1 [N-(1-adamantylmethyl)-N'-cinnamyl piperazine], the Inhibitory rate [1] was 3.10%, the “change in infrared absorption spectrum and nuclear magnetic resonance spectrum” value [2, 9] was “No change” and the “stability by thin layer chromatography” value [2, 9] was “unaffected”. The “stability against heat, alkali and acid” value ([2]; general statement) was “good stability against heat, alkali and acid; also recorded: high stability against heat, alkali and acid”, the “stability in an aqueous solution of tartaric acid” value ([2]; overall conclusion) was “exist stably in an aqueous solution of tartaric acid” and the Inhibitory rate [3] was 95.0%. For the same compound, the Inhibitory rate [4] was 25.0%, the toxicity (in vivo; general statement) was “low toxicity; also recorded: very low toxicity compared with conventional cerebral vasodilators” and the LD50 (in vivo; iv) was 78.8 mg/kg. For the same compound, the LD50 (in vivo; po) was > 10000 mg/kg, the “side effects such as an excessive hypotension” value (Hypotensive action; general statement) was “little side effects such as an excessive hypotension” and the “dose showing hypotensive action” value (Hypotensive action) was > 5 mg/kg. The “hypotensive action compared with Cinnarizine” value (Hypotensive action; versus Cinnarizine) was “clearly weaker than that of Cinnarizine”, the Inhibitory rate [5] was 77.23% and the “smooth muscle relaxing action” value (isolated smooth muscle) was “recognized to possess smooth muscle relaxing action”. For the same compound, the “blood flow of cerebral cortex” value ([6]; 1 mg/kg) was “clearly increased blood flow of cerebral cortex”, the “action on blood flow of cerebral cortex compared with Cinnarizine” value ([6]; versus Cinnarizine 1 mg/kg) was “more significant than that induced by Cinnarizine” and the “blood flow of gastrocnemius muscle” value [7] was “clearly increased blood flow of gastrocnemius muscle”. The “action on blood flow of gastrocnemius muscle compared with Cinnarizine” value ([7]; versus Cinnarizine) was “more significant than that of Cinnarizine”, the “pH value of aqueous solution” value ([8]; 2 times mol of tartaric acid) was 3.10 and the “pH at which crystals began to separate” value ([8]; 2 times mol of tartaric acid, alkali added) was 3.80. For the same compound, the solubility ([8]; aqueous tartaric acid, 2, 4, 6 and 8 times molar, heated to 80° C, cooled to about 20° C) was “soluble in all of the above aqueous solutions of tartaric acid”.
